{
  "source": "patent US8119589B2",
  "about": "“Modulation of CD4+ T cell responses by a tick saliva protein, Salp15 and polypeptides derived therefrom” (University of North Carolina at Charlotte, priority 2004, dated 2012)",
  "key": {"[1]": {"test_system": "CD4+ T cells", "experiment": "Lipid raft redistribution (CTB594 staining, receptor capping) in activated CD4+ T cells", "assay_type": "cell-based, mouse", "conditions": "Salp15 treatment prior to anti-CD3/CD28 stimulation, murine cells", "protocol": "(§1) Naïve CD4+ T cells from C3H/HeN, Balb/c, and B10.BR mice were purified as previously described (Anguita et al., 2002). CD4+ T cells were preincubated in Click's modified Bruff's Medium (Sigma Chemical Co., St. Louis, Mo., U.S.A.) for 10 minutes at 37° C. with and without Salp15 (50 μg/mL) and stimulated for 20 min or the indicated times at 37° C. with 10 μg/mL of anti-CD3ε, 1 μg/mL of anti-CD28, and 10 μg/mL of anti-armenian and syrian hamster IgG (BD Biosciences Pharmingen, San Jose, Calif., U.S.A.). Jurkat (E6-1) cells were stimulated using 5 μg/mL of OKT3 mAb (eBioscience, San Diego, Calif., U.S.A.) and 1 μg/mL of anti-human CD28 cross linked with 5 μg/mL anti-mouse IgG for the indicated times.\n(§2) For the visualization of lipid rafts, phospho-tyrosine, and cytoskeleton reorganization, CD4^+, CD8^+ or Jurkat cells were cytospun for 10 minutes at 1000 RPM onto positively charged microslides (Fisher Scientific, Hampton, N.H., U.S.A.). The cells were fixed with 3.7% paraformaldehyde (Sigma Chemical Co.) for 15 minutes and stained with CTB594 (Molecular Probes, Eugene, Oreg., U.S.A.), AlexaFluor488 labeled phalloidin (Molecular Probes) or (1:50) biotin-conjugated anti-p-Tyr (PY99) followed by Streptavidin-AlexaFluor594 (1:100, Molecular Probes). For p-LAT and p-PLCγ1 staining, fixed cells were treated with PBS containing 0.1% Triton-X 100 and 100 mM glycine for 15 min at room temperature and stained using rabbit p-LAT (Tyr^191) or rabbit anti-p-PLCγ1 (Tyr^783) probed with anti-rabbit IgG488 (Molecular Probes).\nFor receptor capping studies, mouse primary B and CD11^+ cells were purified by positive selection using biotin anti-mouse CD45R/B220 clone RA3-6B2 and biotin anti-mouse CD11b clone M1/70 (BD Biosciences Pharmingen) respectively, followed by incubation with magnetic microbeads. The cells were analyzed for receptor capping using 25 μg/mL anti-mouse IgM and 25 μg/mL anti-mouse CD16/CD32 respectively, cross-linked with 25 μg/mL of anti-rat IgG594 for 10 min in the presence or absence of 50 μg/mL of Salp15. […]"}, "[2]": {"test_system": "Jurkat cells", "experiment": "Lipid raft redistribution (CTB594 staining) in activated Jurkat cells", "assay_type": "cell-based, human", "conditions": "Salp15 treatment prior to anti-CD3/CD28 stimulation", "protocol": "as §1\nas §2, with “For p-LAT and p-PLCγ1 staining, fixed cells were treated with PBS containing 0.1% Triton-X 100 and 100 mM glycine for 15 min at room temperature and stained using rabbit p-LAT (Tyr^191) or rabbit anti-p-PLCγ1 (Tyr^783) probed with anti-rabbit IgG488 (Molecular Probes).” left out"}, "[3]": {"test_system": "Jurkat cells", "experiment": "Actin polymerization (phalloidin488 staining, F-actin immunoblot) in activated Jurkat cells", "assay_type": "cell-based, human", "conditions": "Salp15 pretreatment", "protocol": "as §2\nThe amount of F-actin in activated CD4+ T cells in the presence and absence of Salp15 was quantified by ultracentrifugation and Western blotting. CD4^+ T cells were activated as described above for 2 min. Cells were lysed in HEPES buffer containing Triton X-100 (10 mM NaCl, 135 mM KCl, 2 mM MgCl2, 2 mM EGTA, 10 mM HEPES pH 7.15, 1% Triton X-100, 0.01 mg/ml aprotinin, 0.01 mg/ml leupeptin, 1 mM PMSF). […] Equal amounts of total protein were loaded on the SDS-gel based on the total actin determined from a sample of the cell lysate."}, "[4]": {"target": "T1, CD4 on HeLa-CD4 cells (Homo sapiens, UniProt P01730)", "T1 construct": "host or cells: HeLa", "experiment": "Competition of Salp15488 binding to HeLa-CD4 cells", "conditions": "Salp15 or lysozyme 0.5 mg/mL", "protocol": "For colocalization experiments, Jurkat and CD4^+ T cells were cytospun as described herein. HeLa and HeLa-CD4 cells were grown on chamber slides. The cells were fixed and stained with anti-CD4 and Salp15 as follows. Purified Salp15 was labeled using Alexa-488 with the Protein Labeling Kit (Molecular Probes) according to the manufacturer's instructions. Fixed cells were blocked with 5% normal serum and anti-CD16/CD32 (1:100) in PBS, incubated with 1 μg of monoclonal biotinylated anti-CD4 (L3T4) (BD Biosciences Pharmingen) followed by streptavidin594 staining. The cells were then stained with 20 μg/mL of Salp15488. For competition assays, cells were first blocked with 5% normal serum, incubated with either polyclonal anti-CD4 antibody, MT310, OKT4, normal rabbit IgG, Salp15 (0.5 mg/mL) or lysozyme (0.5 mg/mL) followed by staining with Salp15488. All samples were mounted in a GVA Mount (Zymed, San Francisco, Calif., U.S.A.) and visualized with an Olympus Confocal microscope equipped with Fluoview 3.0 software."}, "[5]": {"target": "T2, sCD4 (Homo sapiens, UniProt P01730)", "T2 construct": "the extracellular four domains of CD4 (sCD4); purchased Research Diagnostics Inc., Flanders, N.J., U.S.A", "experiment": "Competition for sCD4-HRP binding to plate-bound P11", "protocol": "Purified sCD4 was coated overnight at 4° C. at the indicated concentrations in 0.1M sodium carbonate buffer (pH 9.5) in 96 well plates. Equimolar amounts of lysozyme were used as a non-specific control. The wells were washed, blocked with 10% FCS/PBS for 1 hr at R.T., and incubated with Salp15 (0.4 μM) for 2 hr at 37° C. Salp15 binding was detected by incubation with horseradish peroxidase (HRP)-conjugated anti-His antibody for 1 hr followed by microwell peroxidase substrate (KPL). The reaction was stopped by adding TMB stop solution (KPL). Chemically synthesized overlapping peptides of Salp15 were purchased from GenScript Corporation (Piscataway, N.J., U.S.A). To study the binding of Salp15 and peptides to sCD4, Salp15 (5 μg) and different peptides (0.5 μg) were coated. The wells were washed and blocked prior to incubation with sCD4-HRP (Research Diagnostics Inc., Flanders, N.J., U.S.A.). For competition assays, indicated concentrations of Salp15 or P11 were added to sCD4-HRP and incubated with plate bound P11 (0.1 μg). To estimate the effect of dithiothreitol (DTT) treatment of Salp15 on binding to sCD4, 0.5 μM Salp15 was treated with 10 mM DTT overnight and immobilized onto microtiter plate followed by blocking and incubation with sCD4-HRP."}, "[6]": {"test_system": "AP-1 DNA binding", "conditions": "Anguita et al., 2002; cited from earlier work"}},
  "data": [
    {"substance": "Salp15: secreted salivary protein from Ixodes scapularis, SEQ ID NO: 2; recombinant His-tagged, produced in Drosophila S2 cells", "values": [
      {"measurement": "Lipid raft clustering", "setting": "[1]", "value": "reduced"},
      {"measurement": "Lipid raft clustering", "setting": "[2]", "value": "reduced"},
      {"measurement": "Phalloidin488 staining / amount of F-actin", "setting": "[3]", "value": "reduced"},
      {"measurement": "Competition of Salp15488 binding to HeLa-CD4 cells by preincubation", "setting": "[4]", "value": "competed"},
      {"measurement": "Competition of P11 binding to sCD4 by increasing concentrations of Salp15", "setting": "[5]", "value": "could also be competed"},
      {"measurement": "AP-1 DNA binding activation", "setting": "[6]", "value": "does not affect"}
    ]}
  ]
}
